Assay results as given in patent publication US11419335B2, “N-arylated analogues and uses thereof” (University of Florida Research Foundation, Incorporated, priority 2016, dated 2022).
Values after ≈ are worked out from the molar mass of the structure shown. Marks after values point to notes of the source that are not given here.

What was measured:
[1] = system: methicillin-resistant Staphylococcus aureus MRSA-2 (clinical isolate); assay: MIC broth microdilution, MRSA-2; assay type: cell-based
Protocol: (§1) The minimum inhibitory concentration (MIC) for each tested compound was determined by the broth microdilution method as recommended by the Clinical and Laboratory Standards Institute (CLSI). In a 96-well plate, eleven two-fold serial dilutions of each compound were made in a final volume of 100 μL Luria Broth. Each well was inoculated with ˜10^5 bacterial cells at the initial time of incubation, prepared from a fresh log phase culture (OD600 of 0.5 to 1.0 depending on bacterial strain). The MIC was defined as the lowest concentration of compound that prevented bacterial growth after incubating 16 to 18 hours at 37° C. (MIC values were supported by spectrophotometric readings at OD600). DMSO served as our vehicle and negative control in each microdilution MIC assay. DMSO was serially diluted with a top concentration of 1% v/v.
as §1, with “for each compound was” for “for each tested compound was”, “Standards Institute (CLSI).^6 In a” for “Standards Institute (CLSI). In a”, “concentration of test compound that” for “concentration of compound that”, “37° C. The concentration range tested for each compound during this study was 0.10 to 100 μM. DMSO served” for “37° C. (MIC values were supported by spectrophotometric readings at OD600). DMSO served”, “1% v/v. All MIC values were obtained from a minimum of three independent experiments.” for “1% v/v.”

[2] = system: methicillin-resistant Staphylococcus epidermidis (MRSE strain ATCC 35984); assay: MIC broth microdilution, MRSE 35984; assay type: cell-based; conditions: for MIC S. epidermidis MRSE 35984: Table 1A
Protocol: as §1
as §1, with “for each compound was” for “for each tested compound was”, “Standards Institute (CLSI).^6 In a” for “Standards Institute (CLSI). In a”, “concentration of test compound that” for “concentration of compound that”, “37° C. The concentration range tested for each compound during this study was 0.10 to 100 μM. DMSO served” for “37° C. (MIC values were supported by spectrophotometric readings at OD600). DMSO served”, “1% v/v. All MIC values were obtained from a minimum of three independent experiments.” for “1% v/v.”

[3] = system: vancomycin-resistant Enterococcus faecium (VRE strain ATCC 700221); assay: MIC broth microdilution, VRE 700221; assay type: cell-based; conditions: for MIC E. faecium VRE 700221: Table 1A
Protocol: as §1
as §1, with “for each compound was” for “for each tested compound was”, “Standards Institute (CLSI).^6 In a” for “Standards Institute (CLSI). In a”, “concentration of test compound that” for “concentration of compound that”, “37° C. The concentration range tested for each compound during this study was 0.10 to 100 μM. DMSO served” for “37° C. (MIC values were supported by spectrophotometric readings at OD600). DMSO served”, “1% v/v. All MIC values were obtained from a minimum of three independent experiments.” for “1% v/v.”

[4] = system: Acinetobacter baumannii (ATCC 1794); assay: MIC broth microdilution, A. baumannii 1794; assay type: cell-based; conditions: for MIC A. baumannii 1794: Table 1A
Protocol: as §1
as §1, with “for each compound was” for “for each tested compound was”, “Standards Institute (CLSI).^6 In a” for “Standards Institute (CLSI). In a”, “concentration of test compound that” for “concentration of compound that”, “37° C. The concentration range tested for each compound during this study was 0.10 to 100 μM. DMSO served” for “37° C. (MIC values were supported by spectrophotometric readings at OD600). DMSO served”, “1% v/v. All MIC values were obtained from a minimum of three independent experiments.” for “1% v/v.”

[5] = system: Pseudomonas aeruginosa (PAO1); assay: MIC broth microdilution, PAO1; assay type: cell-based
Protocol: as §1
as §1, with “for each compound was” for “for each tested compound was”, “Standards Institute (CLSI).^6 In a” for “Standards Institute (CLSI). In a”, “concentration of test compound that” for “concentration of compound that”, “37° C. The concentration range tested for each compound during this study was 0.10 to 100 μM. DMSO served” for “37° C. (MIC values were supported by spectrophotometric readings at OD600). DMSO served”, “1% v/v. All MIC values were obtained from a minimum of three independent experiments.” for “1% v/v.”

[6] = system: MRSA BAA-1707; assay: MIC broth microdilution, MRSA BAA-1707; assay type: cell-based, Staphylococcus aureus
Protocol: as §1, with “The MIC was defined as the lowest concentration of compound that prevented bacterial growth after incubating 16 to 18 hours at 37° C.” left out
(§2) Each well was inoculated with ˜10^5 bacterial cells at the initial time of incubation, prepared from a fresh log phase culture (OD600 of 0.5 to 1.0 depending on bacterial strain). […] The concentration range tested for each compound during this study was 0.10 to 100 μM. DMSO served as our vehicle and negative control in each microdilution MIC assay. DMSO was serially diluted with a top concentration of 1% v/v. All MIC values were obtained from a minimum of three independent experiments.

[7] = system: methicillin-sensitive Staphylococcus aureus ATCC 29213; assay: MIC broth microdilution, S. aureus 29213; assay type: cell-based
Protocol: as §1, with “The MIC was defined as the lowest concentration of compound that prevented bacterial growth after incubating 16 to 18 hours at 37° C.” left out
as §2

Structure (SMILES) | MIC MRSA-2 ([1]; Table 1A) | MIC MRSA-2 ([1]; Table 4) | MIC MRSE 35984 ([2]; Table 4) | MIC E. faecium VRE 700221 [3] | MIC VRE 700221 ([3]; Table 4) | MIC A. baumannii 1794 ([4]; in µM) | MIC A. bau. 1794 ([4]; Table 4) | MIC PAO1 ([5]; Table 1A) | MIC PAO1 ([5]; Table 4) | MIC S. epidermidis MRSE 35984 [2] | other results
CCCCCCCCCCCCCCCCn1cc[n+](Cc2cc(C(F)(F)F)cc(C(F)(F)F)c2)c1C.[Br-] [Compound 19] | 12.5 µM | 12.5 µM | 12.5 µM | 9.38^a | 9.38a micromolar | >100 | >100 µM | > 100 µM | >100 µM |  | 
C=CC[n+]1ccn(CCCCCCCCCCCCCCCC)c1C.[Br-] [Compound 10] | 2.35^a | 2.35a micromolar | 0.78 µM | 2.35^a | 2.35a micromolar |  | 9.38a micromolar | > 100 µM | >100 µM | 0.78 µM | MIC A. baumannii 1794 [4]: 9.38^a
CCCCCCCCCCCCCCCCn1c(C)[n+](Cc2cccc(F)c2)c2ccccc21.[Br-] [Compound 27] | 6.25 µM | 6.25 µM | 9.38a micromolar | 3.13 µM | 3.13 µM | >100 | >100 µM | > 100 µM | >100 µM | 9.38^a | 
CCCCCCCCCCCCCCCCn1ccnc1C [Compound 23, 1-hexadecyl-2-methyl-1H-imidazole] | 6.25 µM (≈ 1.92 µg/mL) |  |  | 2.35^a |  | >100 |  | > 100 µM |  | 3.13 µM (≈ 0.959 µg/mL) | 
CCCCCCCCCCCCCCCCn1cc[n+](-c2ccc(Oc3ccccc3)cc2)c1C.[Br-] [Compound 5] |  | 4.69a micromolar |  |  |  |  | 37.5a micromolar |  | >100 µM |  | MIC MRSA-2 ([1]; Table 1B): 4.69^a μM; MIC MRSA-2 ([1]; Table 3): 4.69^a μM; MIC MRSA BAA-1707 ([6]; Table 1B): 4.69^a μM; MIC MRSA BAA-1707 ([6]; Table 3): 4.69^a μM; MIC MRSA 1707 ([6]; Table 4): 4.69a micromolar; MIC S. aureus 29213 ([7]; Table 1B): 4.69^a μM; MIC S. aureus 29213 ([7]; Table 3): 4.69^a μM
Cc1nccn1Cc1ccccc1 [Compound 22] | > 100 µM |  |  | > 100 µM |  | >100 |  | > 100 µM |  | > 100 µM | MIC ([1]; Staphylococcus aureus, MRSA, Table 4, read-out: MIC MRSA-2): > 100 µM; MIC ([2]; Staphylococcus epidermidis, Table 4, read-out: MIC MRSE 35984): > 100 µM; MIC ([3]; Table 4, read-out: MIC VRE 700221): > 100 µM; MIC ([4]; Acinetobacter baumannii, ATCC1794, Table 4, read-out: MIC A. bau. 1794): > 100 µM; MIC ([5]; Pseudomonas aeruginosa, PAO1, Table 4): > 100 µM
